One data set relates to ZIKV (PLCal_ZV strain). Kind of data set: CPE-based antiviral assay, ZIKV, neutral red readout (Example 14). The following applies: 6 days post infection. The data set is classed as cell-based, Zikavirus. How it is done: A CPE-based antiviral assay was performed by infecting target cells in the presence or absence of test compositions, at a range of concentrations. […] cytopathic effects and cell death. […] For CPE-based assays, cell viability was determined with a neutral red readout. Viable cells incorporate neutral red in their lysosomes. Uptake of neutral red relies on the ability of live cells to maintain a lower pH inside their lysosomes than in the cytoplasm, and this active process requires ATP. Once inside the lysosome, the neutral red dye becomes charged and is retained intracellularly. […] The amount of neutral red in solution was quantified by reading the absorbance (optical density) of each well at 490 nm […]
Cytotoxic effects were evaluated in uninfected cells by comparing viability in the presence of inhibitors to the viability of mock-treated cells. Cytotoxicity was determined by an XTT viability assay, which was conducted at the same timepoint as the readout for the corresponding infection assay.
Test compositions were dissolved in 100% methanol. […] When possible, the EC50 and CC50 of the composition was determined for each assay using GraphPad Prism software. […]
Protection of ZIKV-induced cytopathic effect (CPE) with Neutral Red readout: For the ZIKV antiviral assay, the PLCal_ZV strain was used. […]

In data set [1] the test system is HTLV-1+ SLB1 lymphoma T-cell-line. Briefly: Cytotoxicity/apoptosis in HTLV-1+ SLB1 cells, Annexin V-FITC/PI staining. Conditions: 72 hrs. The format is cell-based. How it is done:
SLB1 T-cells were treated with increasing concentrations (10, 50, and 100 μg/ml) of oleandrin or a N. oleander extract for 72 hrs as described herein. As a negative control, the cells were also treated with increasing amounts (1.5, 7.5, and 15 μg) of the vehicle solution which corresponded to the volumes used in the drug-treated cultures. Cyclophosphamide (50 μM; Sigma-Aldrich)-treated cells were included as a positive control for apoptosis. Then, the samples were washed and stained with Annexin V-FITC and propidium iodide (PI) and analyzed by confocal fluorescence-microscopy. The relative percentages of Annexin V-FITC and/or PI-positive cells were quantified by fluorescence-microscopy and counting triplicate visual fields using a 20× objective lens.
To assess the relative cytotoxicity of the oleandrin compound, extract of N. oleander, or the Vehicle control in treated cell cultures, 2×10^4 HTLV-1+ SLB1 lymphoma T-cells or activated/cultured huPBMCs were plated in 300 μl of complete medium, supplemented with antibiotics, and maintained at 37.0 under 10% CO2 in a humidified incubator. The cultures were treated with either increasing concentrations (10, 50, and 100 μg/ml) of oleandrin or N. oleander extract, or the Vehicle control ([…]) and incubated for 72 hrs. […] The total numbers of cells per field were quantified by microscopy using a DIC phase-contrast filter.

The subject of another data set is HTLV-1. Kind of data set: HTLV-1 transmission in SLB1/huPBMC co-culture, p19Gag ELISA (Example 22). The format is cell-based, human T-cell leukemia virus type-1. Conditions: 15 min or 3 hrs pre-treatment, 72 hrs co-culture. A general note: An ELISA detects its analyte on a solid surface through an enzyme-linked reagent.
In the next data set the test system is SARS-CoV-2. Kind of data set: microbe, parasite or virus in culture. The format is cell-based.
The next data set deals with Vero-E6 cells. The following applies: African green monkey.

One may read the EC50 as the concentration at which the effect is half-maximal.

Values after ≈ are worked out from the molar mass of the structure shown.

Regarding `CO[C@H]1C[C@H](O[C@H]2CC[C@@]3(C)[C@H](CC[C@@H]4[C@@H]3CC[C@]3(C)[C@@H](C5=CC(=O)OC5)[C@@H](OC(C)=O)C[C@]43O)C2)O[C@@H](C)[C@@H]1O` [oleandrin], the “efficacy against Zika virus” value with ZIKV (PLCal_ZV strain) was “demonstrates efficacy”. Besides, the “cytotoxicity/apoptosis at the lowest concentration” value in data set [1] (10 μg/ml) is reported as “did not induce significant cytotoxicity/apoptosis”. For the same compound, in data set [1] (treated HTLV-1+ SLB1 cells), the “cytotoxicity compared with the Vehicle control” value is recorded as “not significantly higher than the Vehicle control”. In the data set with HTLV-1, the “transmission of HTLV-1 in co-culture” value is listed as “inhibited the transmission of HTLV-1”. Also, in the data set on SARS-CoV-2, the “concentrations with substantial antiviral activity” value was “above 0.01 microg/mL”, the effect on titer entry is “significant reduction in titer”, the “effect on titer compared to DMSO control” value is “no significant effect” and the viral titer entry was “substantial reduction in viral titer”. Also, the “viral titer at the two higher doses” value in the data set on SARS-CoV-2 is on record as “essentially to or below the limit of detection”. The same compound displayed an EC50 in the data set on SARS-CoV-2 (Severe acute respiratory syndrome coronavirus 2, 24 h) of 12 ng/mL (≈ 0.0208 µM). In the data set on SARS-CoV-2 (Severe acute respiratory syndrome coronavirus 2, 48 h), the EC50 was 7.07 ng/mL (≈ 0.0123 µM). In addition, the “toxicity to Vero cells” value with Vero cells is “not overly toxic”. The “concentration at which cellular toxicity appeared” value with Vero-E6 cells was not below 1000 ng/mL. For the same compound, the “Vero cells remaining viable” value in the data set with Vero-E6 cells (24 h) is given as “about 80%”. Moreover, the cellular toxicity entry with VERO CCL-81 cells is “no cellular toxicity was observed”.

The values above are taken from patent publication US11806359B2 (priority 2020, dated 2023).
